The compounds below were run on HCV genotype 1a replicon (assay: HCV genotype 1a replicon assay (NS3 protease activity readout)). Conditions: HCV genotype 1a replicon.
Type: cell-based, hepatitis C virus
Protocol: Assay 2: HCV Genotype 1a Replicon Assay
The HCV genotype 1a replicon cell line was obtained from Apath LLC (APC89; Huh7.5 cell background). This subgenomic replicon contains the N-terminus of the HCV core protein fused to the neomycin-resistance selectable marker. The EMCV IRES lies downstream and drives expression of the non-structural proteins NS3-NS5B. Compound potencies were determined using the NS3-specific protease activity in lysates as a measurement of compound inhibition of replicon levels.
Cells were grown at 37° C. in a 5% CO2 humidified incubator in DMEM (Invitrogen) with 10% FBS (HyClone), 1×NEAA (Invitrogen), 1× Pen-Strep (Invitrogen), and 850 μg/mL G418 (Invitrogen). On day 1 of the assay, cells were plated at 15,000 cells/well in black 96-well tissue culture plates (Costar) in 200 μL media lacking G418. Four hours later, once the cells had adhered, the media was removed and replaced with media (no G418) containing dose-responses of test compounds. Compounds were initially diluted in DMSO and then diluted another 200× in media to bring the final DMSO concentration down to 0.5%. The cells were incubated with test compounds for 48 or 72 hours. At the end of the incubation period, media and compound were removed from the plates.
To determine the NS3-specific protease activity in lysates, the cells were lysed at room temperature in 50 μL/well of 50 mM Hepes pH 7.5, 150 mM NaCl, 15% Glycerol, 0.15% Triton X-100, 10 mM DTT for 20 minutes with shaking. 50 μL of an NS3/4a protease-specific FRET substrate (Anaspec RET S1 Cat#22991) was then added to the wells at a final concentration of 15 μM. The plates were incubated at 37° C. for 20 minutes, which corresponds to a timepoint at which the protease activity is still in the linear phase. Protease activity was determined by measuring fluorescence (Excitation: 340 nm; Emission: 509 nm).
To analyze the data, the fluorescence was plotted vs. the compound concentration, and EC50 values were determined from a 4-parameter robust fit model using GraphPad Prism software.
In the case of COC(=O)N[C@H](C(=O)N1C[C@@H](C)C[C@H]1c1nc(-c2ccc(-c3cc(F)c(NC(=O)c4ccc(N5CCN(C(=O)C6CC67CC7)C[C@H]5C)nc4)cc3F)cc2)c[nH]1)C(C)C (stereo partly shown) [Example 1-90], the “Genotype 1a” value is reported as “C (C represents pEC50 between and 9 and about 10, (EC50 between 1 nM and 0.1 nM))”. With COC(=O)N[C@H](C(=O)N1C[C@@H](C)C[C@H]1c1nc(-c2ccc(-c3cc(Cl)c(NC(=O)c4ccc(N5CCN(C(=O)C6CCC6C)C[C@H]5C)nc4)cc3OC(F)(F)F)cc2)c[nH]1)C(C)C (stereo partly shown) [Example 1-91] the “Genotype 1a” value was “D (D represents pEC50>10 (EC50<0.1 nM))”. With COC(=O)N[C@H](C(=O)N1C[C@@H](C)C[C@H]1c1nc(-c2ccc(-c3cc(Cl)c(NC(=O)c4ccc(N5CCN(C(=O)NN(C)C)C[C@H]5C)nc4)cc3OC(F)(F)F)cc2)c[nH]1)C(C)C [Example 1-94] the “Genotype 1a” value was “D (D represents pEC50>10 (EC50<0.1 nM))”. In the case of COC(=O)N[C@H](C(=O)N1C[C@@H](C)C[C@H]1c1nc(-c2ccc(-c3cc(F)c(NC(=O)c4ccc(N5CCN(C(=O)NN(C)C)C[C@H]5C)nc4)cc3OC(F)(F)F)cc2)c[nH]1)C(C)C [Example 1-95], the “Genotype 1a” value is reported as “C (C represents pEC50 between and 9 and about 10, (EC50 between 1 nM and 0.1 nM))”. In the case of COC(=O)N[C@H](C(=O)N1C[C@@H](C)C[C@H]1c1nc(-c2ccc(-c3cc(Cl)c(NC(=O)c4ccc(N5CCN(C(=O)C(O)C(F)(F)F)C[C@H]5C)nc4)cc3OC(F)(F)F)cc2)c[nH]1)C(C)C (stereo partly shown) [Example 1-97], the “Genotype 1a” value is reported as “C (C represents pEC50 between and 9 and about 10, (EC50 between 1 nM and 0.1 nM))”. In the case of COC(=O)N[C@H](C(=O)N1C[C@@H](C)C[C@H]1c1nc(-c2ccc(-c3cc(Cl)c(NC(=O)c4ccc(N5CCN(C(=O)CC6CC6)C[C@H]5C)nc4)cc3OC(F)(F)F)cc2)c[nH]1)C(C)C [Example 1-98], the “Genotype 1a” value is reported as “C (C represents pEC50 between and 9 and about 10, (EC50 between 1 nM and 0.1 nM))”. In the case of COC(=O)N[C@H](C(=O)N1C[C@@H](C)C[C@H]1c1nc(-c2ccc(-c3cc(Cl)c(NC(=O)c4ccc(N5CCN(C(=O)C6(C(F)(F)F)CC6)C[C@H]5C)nc4)cc3OC(F)(F)F)cc2)c[nH]1)C(C)C [Example 1-99], the “Genotype 1a” value is reported as “D (D represents pEC50>10 (EC50<0.1 nM))”. In the case of [2H]C([2H])([2H])C1(C([2H])([2H])[2H])CC1C(=O)N1CCN(c2ccc(C(=O)Nc3cc(Cl)c(-c4ccc(-c5c[nH]c([C@@H]6C[C@H](C)CN6C(=O)[C@@H](NC(=O)OC)C(C)C)n5)cc4)cc3F)cn2)[C@H](C)C1 (stereo partly shown) [Example 1-100], the “Genotype 1a” value is reported as “D (D represents pEC50>10 (EC50<0.1 nM))”. COC(=O)N[C@H](C(=O)N1C[C@@H](N(C)C)C[C@H]1c1nc(-c2ccc(-c3ccc(NC(=O)c4ccc(N5CCN(C(=O)[C@H]6CC6(C)C)C[C@H]5C)nc4)cc3C)cc2)c[nH]1)C(C)C [Example 2-4] was tested, and the “Genotype 1a” value was “D (D represents pEC50>10 (EC50<0.1 nM))”. COC(=O)N[C@H](C(=O)N1C[C@@H](N(C)C)C[C@H]1c1nc(-c2ccc(-c3cc(Cl)c(NC(=O)c4ccc(N5CCN(C(=O)[C@H]6CC6(C)C)C[C@H]5C)nc4)cc3OC(F)(F)F)cc2)c[nH]1)C(C)C [Example 2-6] was tested, and the “Genotype 1a” value was “D (D represents pEC50>10 (EC50<0.1 nM))”. For COC(=O)N[C@H](C(=O)N1C[C@@H](N(C)C)C[C@H]1c1nc(-c2ccc(-c3cc(Cl)c(NC(=O)c4ccc(N5CCN(C(=O)C(C)(C)C)C[C@H]5C)nc4)cc3OC(F)(F)F)cc2)c[nH]1)C(C)C [Example 2-7], the “Genotype 1a” value was “C (C represents pEC50 between and 9 and about 10, (EC50 between 1 nM and 0.1 nM))”. COC(=O)N[C@H](C(=O)N1C[C@@H](N(C)C)C[C@H]1c1nc(-c2ccc(-c3cc(Cl)c(NC(=O)c4ccc(N5CCN(C(=O)[C@H]6CC6(C)C)C[C@H]5C)nc4)cc3OC(F)(F)F)cc2)c(Cl)[nH]1)C(C)C [Example 2-8] was tested, and the “Genotype 1a” value was “D (D represents pEC50>10 (EC50<0.1 nM))”. COC(=O)N[C@H](C(=O)N1CC(C)(C)C[C@H]1c1nc(-c2ccc(-c3cc(F)c(NC(=O)c4ccc(N5CCN(C(=O)[C@]6(C)CCCN6C(=O)[C@@H](NC(=O)OC)C(C)C)C[C@H]5C)nc4)cc3C(F)(F)F)cc2)c[nH]1)C(C)C [Example 3-2] was tested, and the “Genotype 1a” value was “D (D represents pEC50>10 (EC50<0.1 nM))”. For COC(=O)N[C@H](C(=O)N1C[C@@H](C)C[C@H]1c1nc(-c2ccc(-c3ccc(C(=O)Nc4ccc(N5CCN(C(=O)[C@]6(C)CCCN6C(=O)[C@@H](NC(=O)OC)C(C)C)C[C@H]5C)nc4)cc3OC(F)(F)F)cc2)c[nH]1)C(C)C [Example 4-3], the “Genotype 1a” value was “D (D represents pEC50>10 (EC50<0.1 nM))”. With CNC(=O)N1CCC[C@@]1(C)C(=O)N1C[C@@H](C)N(c2ccc(NC(=O)c3ccc(-c4ccc(-c5c[nH]c([C@@H]6C[C@H](C)CN6C(=O)[C@@H](NC(=O)OC)C(C)C)n5)cc4)c(OC(F)(F)F)c3)cn2)C[C@@H]1C [Example 4-9] the “Genotype 1a” value was “D (D represents pEC50>10 (EC50<0.1 nM))”. With COC(=O)N[C@H](C(=O)N1C[C@@H](C)C[C@H]1c1nc(-c2ccc(-c3ccc(C(=O)Nc4ccc(N5C[C@H](C)N(C(=O)C6CC6C)C[C@H]5C)nc4)cc3OC(F)(F)F)cc2)c(Cl)[nH]1)C(C)C (stereo partly shown) [Example 4-13] the “Genotype 1a” value was “C (C represents pEC50 between and 9 and about 10, (EC50 between 1 nM and 0.1 nM))”. For COC(=O)N[C@H](C(=O)N1C[C@@H](C)C[C@H]1c1nc(-c2ccc(-c3ccc(C(=O)Nc4ccc(N5C[C@H](C)N(C(=O)C(C)(C)C)C[C@H]5C)nc4)cc3OC(F)(F)F)cc2)c[nH]1)C(C)C [Example 4-15], the “Genotype 1a” value was “D (D represents pEC50>10 (EC50<0.1 nM))”. COC(=O)N[C@H](C(=O)N1C[C@@H](C)C[C@H]1c1nc(-c2ccc(-c3ccc(C(=O)Nc4ccc(N5C[C@H](C)N(C(=O)C6CC6(F)F)C[C@H]5C)nc4)cc3OC(F)(F)F)cc2)c[nH]1)C(C)C (stereo partly shown) [Example 4-22] was tested, and the “Genotype 1a” value was “C (C represents pEC50 between and 9 and about 10, (EC50 between 1 nM and 0.1 nM))”. With COC(=O)N[C@H](C(=O)N1C[C@@H](C)C[C@H]1c1nc(-c2ccc(-c3ccc(C(=O)Nc4ccc(N5C[C@H](C)N(C(=O)C6CC6(Cl)Cl)C[C@H]5C)nc4)cc3OC(F)(F)F)cc2)c[nH]1)C(C)C (stereo partly shown) [Example 4-23] the “Genotype 1a” value was “C (C represents pEC50 between and 9 and about 10, (EC50 between 1 nM and 0.1 nM))”. With COC(=O)N[C@H](C(=O)N1C[C@@H](C)C[C@H]1c1nc(-c2ccc(-c3ccc(C(=O)Nc4ccc(N5C[C@H](C)N(C(=O)NC6CC6)C[C@H]5C)nc4)cc3OC(F)(F)F)cc2)c[nH]1)C(C)C [Example 4-24] the “Genotype 1a” value was “C (C represents pEC50 between and 9 and about 10, (EC50 between 1 nM and 0.1 nM))”. In the case of COC(=O)N[C@H](C(=O)N1C[C@@H](C)C[C@H]1c1nc(-c2ccc(-c3ccc(C(=O)Nc4ccc(N5C[C@H](C)N(C(=O)NC(C)C)C[C@H]5C)nc4)cc3OC(F)(F)F)cc2)c[nH]1)C(C)C [Example 4-25], the “Genotype 1a” value is reported as “C (C represents pEC50 between and 9 and about 10, (EC50 between 1 nM and 0.1 nM))”. With COC(=O)N[C@H](C(=O)N1C[C@@H](C)C[C@H]1c1nc(-c2ccc(-c3ccc(C(=O)Nc4ccc(N5C[C@H](C)N(C(=O)C(C)(C)C)C[C@H]5C)nc4)cc3OC(F)(F)F)cc2)c(Cl)[nH]1)C(C)C [Example 4-26] the “Genotype 1a” value was “D (D represents pEC50>10 (EC50<0.1 nM))”. For COC(=O)N[C@H](C(=O)N1C[C@@H](C)C[C@H]1c1nc(-c2ccc(-c3ccc(C(=O)Nc4ccc(N5C[C@H](C)N(C(=O)C(C)(C)NC(C)=O)C[C@H]5C)nc4)cc3OC(F)(F)F)cc2)c[nH]1)C(C)C [Example 4-27], the “Genotype 1a” value was “C (C represents pEC50 between and 9 and about 10, (EC50 between 1 nM and 0.1 nM))”. For COC(=O)N[C@H](C(=O)N1C[C@@H](C)C[C@H]1c1nc(-c2ccc(-c3ccc(C(=O)Nc4ccc(N5C[C@H](C)N(C(=O)[C@@H](C)NC(C)=O)C[C@H]5C)nc4)cc3OC(F)(F)F)cc2)c[nH]1)C(C)C [Example 4-28], the “Genotype 1a” value was “D (D represents pEC50>10 (EC50<0.1 nM))”. With COC(=O)N[C@H](C(=O)N1C[C@@H](C)C[C@H]1c1nc(-c2ccc(-c3ccc(C(=O)Nc4ccc(N5CCN(C(=O)[C@H]6CC6(C)C)C[C@H]5C)nc4)cc3OC(F)(F)F)cc2)c(Cl)[nH]1)C(C)C [Example 4-29] the “Genotype 1a” value was “D (D represents pEC50>10 (EC50<0.1 nM))”. For COC(=O)N[C@H](C(=O)N1C[C@@H](C)C[C@H]1c1nc(-c2ccc(-c3ccc(C(=O)Nc4ccc(N5CCN(C(=O)C6CC6(Cl)Cl)C[C@H]5C)nc4)cc3OC(F)(F)F)cc2)c(Cl)[nH]1)C(C)C (stereo partly shown) [Example 4-30], the “Genotype 1a” value was “C (C represents pEC50 between and 9 and about 10, (EC50 between 1 nM and 0.1 nM))”.

Same assay, conditions: Hepatitis C virus, read-out: Genotype 1a, HCV genotype 1a replicon
With COC(=O)N[C@H](C(=O)N1CC(C)(C)C[C@H]1c1nc(-c2ccc(-c3cc(F)c(NC(=O)c4ccc(N5CCN(C(=O)C6CC6)C[C@H]5C)nc4)cc3C(F)(F)F)cc2)c[nH]1)C(C)C [Example 3-3] the EC50 was 0.1 to 1 nM. With CNC(=O)N1CCN(c2ccc(C(=O)Nc3cc(C(F)(F)F)c(-c4ccc(-c5c[nH]c([C@@H]6CC(C)(C)CN6C(=O)[C@@H](NC(=O)OC)C(C)C)n5)cc4)cc3F)cn2)[C@H](C)C1 [Example 3-4] the EC50 was 0.1 to 1 nM.
